Results as given in patent US20100168243A1, “Renin Inhibitors” (priority 2007, published 2010).

Target: T1, trypsin-activated recombinant human renin (Homo sapiens, UniProt P00797)
T1 sequence (P00797 67-406): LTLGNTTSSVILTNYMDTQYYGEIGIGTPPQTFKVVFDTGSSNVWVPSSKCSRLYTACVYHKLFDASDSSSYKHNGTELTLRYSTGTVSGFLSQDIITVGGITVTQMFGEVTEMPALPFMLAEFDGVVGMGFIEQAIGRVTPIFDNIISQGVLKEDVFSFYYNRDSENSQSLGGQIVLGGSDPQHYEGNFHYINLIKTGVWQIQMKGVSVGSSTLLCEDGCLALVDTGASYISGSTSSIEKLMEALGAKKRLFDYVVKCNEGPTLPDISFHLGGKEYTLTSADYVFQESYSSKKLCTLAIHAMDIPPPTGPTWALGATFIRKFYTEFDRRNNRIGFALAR
Assay: IC50 for renin, fluorescence of quenched peptide substrate (protocols of Example 3 or 4)
Format: biochemical
Settings: protocols described in Example 3 or 4; class according to the IC50 values; read-out: IC50 for renin, class in words
Description: The sequence of this peptide corresponds to the sequence of human angiotensinogen. The following test protocol is used: All reactions are carried out in a flat bottom white opaque microtiter plate. A 4 μL aliquot of 400 μM renin substrate (DABCYL-γ-Abu-[…]EDANS) in 192 μL assay buffer (50 mM BES, 150 mM NaCl, 0.25 mg/mL bovine serum albumin, pH7.0) is added to 4 μL of test compound in DMSO at various concentrations ranging from 10 μM to 1 nM final concentrations. Next, 100 μL of trypsin-activated recombinant human renin (final enzyme concentration of 0.2-2 nM) in assay buffer is added, and the solution is mixed by pipetting. The increase in fluorescence at 495 nm (excitation at 340 nm) is measured for 60-360 min at rt using a Perkin-Elmer Fusion microplate reader. The slope of a linear portion of the plot of fluorescence increases as a function of time is then determined, and the rate is used for calculating percent inhibition in relation to uninhibited control. […]
All reactions are carried out in a low volume, black, 384 well microtiter plate (Greiner Bio-one). […] After 2 hours of reaction at room temperature, the plates were read on a Viewlux™ (Perkin Elmer) with an excitation/emission of 485/530 nm, and using a 505 nm cutoff filter. […]
The IC50 values of the disclosed compounds for renin were determined according to the protocols described in Example 3 or 4. […]

Row | IC50 [nM] | SMILES
1 | 0.01 to 50 | COCCCCC(O)(CCN(C)C(=O)[C@H]1C[C@@H](N)[C@@H](O)C1)c1cccc(Cl)c1-c1cccc(C)c1 (stereo partly drawn) [Compound 1, (1S,3R,4S)-3-amino-N-[3-(6-chloro-3′-methyl-2-biphenylyl)-3-hydroxy-7-(methyloxy)heptyl]-4-hydroxy-N-methylcyclopentanecarboxamide]
2 | 0.01 to 50 | COCCCC[C@](O)(CCN(C)C(=O)[C@H]1C[C@@H](N)[C@@H](O)C1)c1cccc(Cl)c1-c1cccc(C)c1 [Compound 11, (1S,3R,4S)-3-amino-N—((S)-3-(6-chloro-3′-methylbiphenyl-2-yl)-3-hydroxy-7-methoxyheptyl)-4-hydroxy-N-methylcyclopentanecarboxamide]
